We go through three compounds from patent US20050107386A1, “Methods of treating diseases and disorders by targeting multiple kinases” (priority 2003, published 2005).

Format in all cases: biochemical
What all share (conditions): 3 μM; percent of control kinase activity

The target in one test is PDGFRβ(h) (Homo sapiens, UniProt P09619). The test can be described thus: PDGFRβ(h) kinase assay. How it is done:
(§1) Six compounds (presumptive single agents) were tested against a panel of 50 kinases. The results are presented in Table 2; numbers for each kinase indicate the percent of control kinase activity in the presence of a 3μM concentration of the indicated agent.
(§2) Agents that target two or more different kinases are useful in the methods of the invention as described elsewhere herein. Such compounds may be identified, and their effect on certain kinases may be identified, using the assays briefly described below in Examples 4-83. Each of these assays was carried out as described in Davies et al., Biochem. J., 351:95-105 (2000). All assays were carried out at 10 μM ATP unless otherwise noted.
(§3) In a final reaction volume of 25 μl, PDGFRβ (h) (5-10 mU) is incubated with 8 mM MOPS pH 7.0, 0.2 mM EDTA, 0.1 mg/ml poly(Glu, Tyr) 4:1, 10 mM MnCl2, 10 mM MgAcetate and [γ-^33P-ATP] (specific activity approx. 500 cpm/pmol, concentration as required). The reaction is initiated by the addition of Mg^2+ [γ-^33P-ATP]. After incubation for 40 minutes at room temperature, the reaction is stopped by the addition of 5 μl of a 3% phosphoric acid solution. 10 μl of the reaction is then spotted onto a Filtermat A and washed three times for 5 minutes in 75 mM phosphoric acid and once in methanol prior to drying and scintillation counting.

A further test concerns the target CSK(h) (Homo sapiens, UniProt P41240). Briefly: CSK(h) kinase assay. As for the experimental part:
as §1, §2
as §3, with “CSK” for “PDGFRβ”, “50” for “8”, “Tris” for “MOPS”, “7.5, 0.1” for “7.0, 0.2”, “EGTA, 0.1 mM NaVanadate, 0.1% β-mercaptoethanol,” for “EDTA,”

The target in another test is PKA(h) (Homo sapiens, UniProt P17612). The test can be described thus: PKA(h) kinase assay. How it is done:
as §1, §2
as §3, with “25 μl, PKA(h) (5-10 mU)” for “25 μl, PDGFRβ (h) (5-10 mU)”, “mM EDTA, 30 μM LRRASLG (Kemptide; SEQ ID NO:10), 10 mM” for “mM EDTA, 0.1 mg/ml poly(Glu, Tyr) 4:1, 10 mM MnCl2, 10 mM”, “of 5 [Il of a” for “of 5 μl of a”, “onto a P30 filtermat and washed” for “onto a Filtermat A and washed”, “minutes in 50 mM phosphoric” for “minutes in 75 mM phosphoric”

A further test concerns the target T1, Aurora-A(h) (Homo sapiens, UniProt O14965).
T1 sequence (O14965 1-403): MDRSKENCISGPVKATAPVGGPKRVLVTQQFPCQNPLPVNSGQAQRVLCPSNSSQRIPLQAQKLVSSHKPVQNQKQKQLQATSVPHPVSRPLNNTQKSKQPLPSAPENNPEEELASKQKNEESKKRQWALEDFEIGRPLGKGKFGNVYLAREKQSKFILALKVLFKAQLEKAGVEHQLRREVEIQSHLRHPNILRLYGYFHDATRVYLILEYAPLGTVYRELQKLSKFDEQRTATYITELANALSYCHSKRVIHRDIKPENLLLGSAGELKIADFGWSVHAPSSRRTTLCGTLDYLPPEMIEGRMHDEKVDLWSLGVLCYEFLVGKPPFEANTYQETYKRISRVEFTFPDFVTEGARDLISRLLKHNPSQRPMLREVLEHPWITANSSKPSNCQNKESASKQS
Briefly: Aurora-A(h) kinase assay. As for the experimental part:
as §1, §2

Another test deals with T2, PKD2(h) (Homo sapiens, UniProt Q9BZL6).
T2 sequence (Q9BZL6 1-878): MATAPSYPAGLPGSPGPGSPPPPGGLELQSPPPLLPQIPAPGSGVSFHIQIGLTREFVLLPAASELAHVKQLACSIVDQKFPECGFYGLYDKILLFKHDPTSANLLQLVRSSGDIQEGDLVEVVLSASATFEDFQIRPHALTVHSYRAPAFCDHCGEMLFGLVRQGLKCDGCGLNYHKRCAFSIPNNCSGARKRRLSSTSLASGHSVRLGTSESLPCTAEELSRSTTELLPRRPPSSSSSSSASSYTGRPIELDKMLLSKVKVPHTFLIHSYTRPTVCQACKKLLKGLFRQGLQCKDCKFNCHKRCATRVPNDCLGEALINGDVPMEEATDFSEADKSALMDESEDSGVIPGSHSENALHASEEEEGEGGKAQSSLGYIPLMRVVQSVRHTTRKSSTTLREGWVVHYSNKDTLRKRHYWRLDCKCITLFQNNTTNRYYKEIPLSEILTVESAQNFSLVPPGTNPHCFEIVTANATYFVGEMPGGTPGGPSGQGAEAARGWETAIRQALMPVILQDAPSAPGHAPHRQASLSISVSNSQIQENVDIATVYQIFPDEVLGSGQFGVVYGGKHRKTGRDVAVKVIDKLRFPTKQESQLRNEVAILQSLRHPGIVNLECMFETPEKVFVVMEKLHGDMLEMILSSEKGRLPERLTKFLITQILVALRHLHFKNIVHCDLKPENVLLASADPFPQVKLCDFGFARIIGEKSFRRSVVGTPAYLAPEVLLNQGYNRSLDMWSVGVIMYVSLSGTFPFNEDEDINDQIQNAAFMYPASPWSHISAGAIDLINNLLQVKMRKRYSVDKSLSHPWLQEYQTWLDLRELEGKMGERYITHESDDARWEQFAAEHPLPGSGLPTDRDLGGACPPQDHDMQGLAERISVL
Briefly: PKD2(h) kinase assay. How it is done: as §1, §2

Sequence of PDGFRβ(h) (P09619 33-1106): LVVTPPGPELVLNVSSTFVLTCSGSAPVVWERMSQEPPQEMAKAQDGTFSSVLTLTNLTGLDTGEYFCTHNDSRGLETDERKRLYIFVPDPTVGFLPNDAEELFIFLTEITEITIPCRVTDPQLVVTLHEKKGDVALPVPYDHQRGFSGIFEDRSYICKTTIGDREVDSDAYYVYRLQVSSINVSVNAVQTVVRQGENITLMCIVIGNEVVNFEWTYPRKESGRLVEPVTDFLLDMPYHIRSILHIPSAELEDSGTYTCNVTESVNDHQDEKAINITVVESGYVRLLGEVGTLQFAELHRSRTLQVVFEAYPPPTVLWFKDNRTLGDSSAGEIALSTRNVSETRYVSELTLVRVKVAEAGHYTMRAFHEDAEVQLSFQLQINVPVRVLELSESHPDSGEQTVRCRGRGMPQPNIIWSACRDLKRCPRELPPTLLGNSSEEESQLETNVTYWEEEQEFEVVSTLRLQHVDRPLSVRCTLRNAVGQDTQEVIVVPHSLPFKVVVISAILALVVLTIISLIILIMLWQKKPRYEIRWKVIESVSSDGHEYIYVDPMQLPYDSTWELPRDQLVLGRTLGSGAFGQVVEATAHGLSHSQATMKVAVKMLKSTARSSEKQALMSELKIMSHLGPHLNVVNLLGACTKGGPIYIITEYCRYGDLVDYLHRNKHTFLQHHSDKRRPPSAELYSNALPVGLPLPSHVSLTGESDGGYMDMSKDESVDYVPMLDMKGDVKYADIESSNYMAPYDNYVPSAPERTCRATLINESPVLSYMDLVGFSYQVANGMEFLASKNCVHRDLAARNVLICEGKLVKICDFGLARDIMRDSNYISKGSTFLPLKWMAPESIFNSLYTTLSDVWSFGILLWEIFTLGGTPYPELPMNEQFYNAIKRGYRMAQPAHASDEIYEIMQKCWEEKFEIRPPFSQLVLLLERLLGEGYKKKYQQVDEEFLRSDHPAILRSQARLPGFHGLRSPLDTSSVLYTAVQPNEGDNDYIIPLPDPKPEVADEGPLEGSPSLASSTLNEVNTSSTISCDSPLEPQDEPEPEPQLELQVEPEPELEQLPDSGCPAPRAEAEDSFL
Sequence of CSK(h) (P41240 whole entry): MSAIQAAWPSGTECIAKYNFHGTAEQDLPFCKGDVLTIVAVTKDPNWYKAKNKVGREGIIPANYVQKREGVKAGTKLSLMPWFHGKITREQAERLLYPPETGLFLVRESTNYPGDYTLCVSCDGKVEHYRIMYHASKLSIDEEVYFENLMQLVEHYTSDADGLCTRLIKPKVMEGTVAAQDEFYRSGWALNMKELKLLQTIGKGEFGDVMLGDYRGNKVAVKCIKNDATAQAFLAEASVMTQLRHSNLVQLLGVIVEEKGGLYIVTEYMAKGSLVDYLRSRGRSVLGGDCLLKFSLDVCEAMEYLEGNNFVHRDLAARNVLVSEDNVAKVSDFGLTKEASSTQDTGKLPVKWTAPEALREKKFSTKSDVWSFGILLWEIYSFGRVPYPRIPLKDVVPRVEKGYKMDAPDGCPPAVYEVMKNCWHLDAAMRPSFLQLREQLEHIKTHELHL

Consider `COc1ccc2cc(-c3n[nH]c4ccc(-c5n[nH]c(CN6CCOCC6)n5)cc34)ccc2c1` [CC001, 3-(6-Methoxynaphthalen-2-yl)-5-(5-Morpholin-4-Ylmethyl-1H-[1,2,4]Triazol-3-yl)-1H-Indazole], for which the “Inhibitory activity (% of control), PDGFRβ(h)” value at PDGFRβ(h) is 94 % of control. Besides, on CSK(h), the “Inhibitory activity (% of control), CSK(h)” value is on record as 95 % of control. On PKA(h), the “Inhibitory activity (% of control), PKA(h)” value is reported as 60 % of control. Besides, on Aurora-A(h), the “Inhibitory activity (% of control), Aurora-A(h)” value is given as 7 % of control. The “Inhibitory activity (% of control), PKD2(h)” value on PKD2(h) is 14 % of control.
For `CC(C)(C)Cc1nc(-c2ccc3[nH]nc(-c4ccc5cc(OCc6ccccn6)ccc5c4)c3c2)n[nH]1` [CC004, 5-[5-(2,2-Dimethyl-propyl)-1H-[1,2,4]triazol-3-yl]-3-[6-(pyridine-2-ylmethoxy)-naphthalen-2-yl]-1H-indazole] the same measures were 91 % of control, 123 % of control, 91 % of control, 7 % of control and 26 % of control.
On the same counts, the results for `CCN1CCC[C@H]1COc1ccc2cc(-c3n[nH]c4ccc(-c5nc(CC(C)(C)C)n[nH]5)cc34)ccc2c1` [CC005, 2-[((2s)-1-ethylpyrrolidin-2-yl)methoxy]-6-{5-[3-(2,2-Dimethylpropyl)(1H-1,2,4,-triazol-5-yl)](1H-indazol-3-yl)}naphthalene] are 20 % of control, 88 % of control, 50 % of control, 0 % of control and 0 % of control.
